Columns and labels:
[1] = test system: protoplasts from UT leaves; test: Protoplast culture with hormones or hormone conjugates, UT protoplasts; type: cell-based, Nicotiana tabacum; conditions: for Division Efficiency / Plating Efficiency: hormone concentration in mg L^−1
Protocol: (§1) To evaluate the effects of hormones or hormone conjugates on protoplast division, six hormones or conjugate combinations (Table IV) were tested in the protoplast culture.
(§2) The protocol of the protoplast isolation was modified from the method of Rao and Prakash (1995). Leaves from BGL-1 and UT were cut into small pieces and placed on the surface of the enzyme solution with the lower surface down. Incubation was carried out in the dark at a temperature of 25° C.±1° C. for 8 h to release the protoplasts. The enzymatic cocktail contained 2% (w/v) cellulase Onozuka R-10, 0.5% (w/v) macerozyme R-10, 0.2% (w/v) dextran potassium sulfate, 5 mm CaCl2.2H2O, and 0.7 m mannitol, pH 5.8. After removing undigested materials and digested debris by filtration through a […] steel mesh, the enzymatic mixture was centrifuged at 1,000 rpm for 10 min. The protoplasts were resuspended in 5 mL of washing medium, and the process was repeated three times. Protoplasts were cultured at a density of 2×10^5 mL^−1 in 5-cm petri dishes in 3 mL of culture medium (Rao and Prakash, 1995) supplemented with different hormone or conjugate hormone regimes (Table IV). The cultures were kept at 25° C. in the dark. After 7 d, fresh medium was added to each petri dish, and the addition of medium was repeated on the 11th d of culture. […] After the development of microcalli visible to the naked eye, the cultures were transferred to light.

[2] = test system: protoplasts from BGL-1 leaves; test: Protoplast culture with hormones or hormone conjugates, BGL-1 protoplasts; type: cell-based, Nicotiana tabacum; conditions: for Division Efficiency / Plating Efficiency: BGL-1 protoplasts, hormone concentration in mg L^−1
Protocol: as §1, §2

C/C(=C\CNc1ncnc2[nH]cnc12)CO [Zeatin (1.0), Zeatin]
Division Efficiency [1]: 6.8 ± 0.9%
Plating Efficiency [1]: 4.6 ± 0.3%
Division Efficiency [2]: 10.6 ± 0.8%
Plating Efficiency [2]: 6.2 ± 0.4%

Naphthylacetic acid [Naphthylacetic acid (3.0)]
Division Efficiency [1]: 4.8 ± 0.7%
Plating Efficiency [1]: 3.3 ± 0.2%
Division Efficiency [2]: 9.1 ± 1.8%
Plating Efficiency [2]: 4.3 ± 0.5%

Zeatin-O-glucoside [Zeatin-O-glucoside (1.0)]
Division Efficiency [1]: 0%
Plating Efficiency [1]: 0%
protoplast division and cell colony formation ([1]; zeatin-O-glucoside only): did not divide and form cell colonies
Division Efficiency [2]: 7.5 ± 1.2%
Plating Efficiency [2]: 3.7 ± 0.3%
increase of cell division efficiency of BGL-1 protoplasts compared with UT protoplasts ([2]; exogenously supplied zeatin-O-glucoside): 670%

Reference: patent US20140033367A1 (priority 2010, published 2014)
